Patent US6599713B1, “Method for quantitating leukocyte count in whole blood sample” (priority 1999, dated 2003)

What was measured:
[1] = test system: white blood cells contained in a whole blood sample; experiment: MPO-releasing effects of various surfactants on whole blood, ELISA (Examples 3 to 5); type: cell-based, human; details: 60 minutes on ice
Procedure: 10 ml of healthy human whole blood was collected using a 28 G winged intravenous injection needle (manufactured and sold by Terumo Corporation, Japan), and immediately mixed with 10 mg of EDTA-2K (manufactured and sold by Dojin Laboratories, Japan), and the resultant EDTA-containing whole blood sample was subjected to the below-described various measurements within 1 hour from the blood collection.
500 μl of the blood was put in a 2-ml Eppendorf tube, and 500 μl of a 1% (w/v) aqueous surfactant solution was added to the tube, and the resultant mixture was stirred for 2 seconds by a Vortex mixer. Subsequently, the mixture was allowed to stand for 60 minutes on ice to thereby lyze the white blood cells. After the lysis of the white blood cells, 100 μl of the mixture was taken out and added to 900 μl of a PBS solution containing dissolved therein 1% BSA (trade name: “Sigma fraction V”, manufactured and sold under the brand of SIGMA™, U.S.A.). The resultant mixture was stirred by a Vortex mixer, and then 10 μl of the mixture was taken out and diluted 2,000-fold with 1% BSA/PBS solution. The resultant diluted mixture was subjected to a measurement by ELISA.
The outline of the ELISA is as follows. A 5 μg/ml PBS solution of an anti-MPO antibody was put into the wells of a Nunc Immuno Plate (manufactured and sold by Nalge Nunc International, Denmark) in an amount of 100 μl per well. The solution in each well was sealed and subjected to a reaction for 18 hours at 4° C. thereby immobilizing the primary antibody. The wells were washed with a washing solution (0.05% Tween™ 20/PBS) and then subjected to blocking for 1 hour at room temperature by using 200 μl of a blocking solution (1% BSA/PBS), and then washed twice with the washing solution. […] The wells were washed 5 times with a washing solution, and 100 μl of a just-prepared TMB solution (manufactured and sold by Kirkegaad & Perry Laboratories, U.S.A.) was added thereto to effect a color reaction. 2 Minutes after the start of the color reaction, 100 μl of a 1 N sulfuric acid solution (manufactured and sold by Nacalai Tesque, Inc., Japan) was added to the wells to thereby terminate the reaction. Then, the absorbance at 450 nm was measured by means of a plate reader (manufactured and sold by Bio-Rad Laboratories, U.S.A.).
With respect to the measurement of the MPO concentration of the sample, MPO (manufactured and sold by Elastin Products Co., INC., U.S.A.) was added to the sample so that the final concentration of the added MPO became 5 ng/ml or 10 ng/ml, and the resultant mixture was measured with respect to the MPO concentration. From the obtained value of MPO concentration, a calibration curve for each sample was obtained. The obtained calibration curve was corrected, based on its relationship with a calibration curve obtained with respect to a standard MPO solution, and the corrected calibration curve of each sample was used to determine the MPO concentration of the whole blood. The measurement was conducted 3 times, and a mean value±standard deviation was obtained.

[2] = test system: white blood cells contained in the whole blood; experiment: Concentration of surfactant and release amount of MPO in whole blood, ELISA (Example 2); type: cell-based, human; details: 60 minutes on ice, mean ± SD of 3
Procedure: 10 ml of healthy human whole blood was collected and immediately mixed with 10 mg of EDTA-2K (manufactured and sold by Dojin Laboratories, Japan), and the resultant EDTA-containing whole blood sample was subjected to the below-described various measurements within 1 hour from the blood collection.
500 μl of the blood was put in a 2-ml Eppendorf tube, and 500 μl of an aqueous surfactant solution having a surfactant concentration of 0.1, 0.2, 0.4, 0.6, 1, 2, 4, 10 or 20% (w/v) was added to the tube, and the resultant mixture was stirred for 2 seconds by a Vortex mixer. Subsequently, the mixture was allowed to stand for 60 minutes on ice to thereby lyze the white blood cells. […] After the lysis of the white blood cells, 100 μl of the mixture was taken out and added to 900 μl of a PBS solution containing dissolved therein 1% BSA (trade name: “Sigma fraction V”, manufactured and sold under the brand of SIGMA™, U.S.A.). The resultant mixture was stirred by a Vortex mixer, and then 10 μl of the mixture was taken out and diluted 2,000-fold with 1% BSA/PBS solution. The resultant diluted mixture was subjected to a measurement by ELISA.
The outline of the ELISA is as follows. A 5 μg/ml PBS solution of a rabbit anti-human myeloperoxidase antibody (manufactured and sold by Calbiochem-Novabiochem Corporation, U.S.A.)(hereinafter, frequently referred to as “anti-MPO antibody”) was put into the wells of a Nunc Immuno Plate (manufactured and sold by Nalge Nunc International, Denmark) in an amount of 100 μl per well. The solution in each well was sealed and subjected to a reaction for 18 hours at 4° C. thereby immobilizing the primary antibody. The wells were washed with a washing solution (0.05% Tween™ 20/PBS) and then subjected to blocking for 1 hour at room temperature by using 200 μl of a blocking solution (1% BSA/PBS), and then washed twice with the washing solution. Then, the above-obtained diluted mixture (blood sample which had been treated with a surfactant and then diluted) was put in the wells in an amount of 100 μl per well, and subjected to a reaction for 2 hours at room temperature. Then, the wells were washed 3 times with the washing solution, and a 5 μg/ml solution of an anti-MPO antibody labeled with horseradish peroxidase (hereinafter referred to as “HRP”) was put in the wells in an amount of 100 μl per well, and subjected to a reaction for 1 hour at room temperature. As the above-mentioned HRP-labeled anti-MPO antibody, an anti-human MPO antibody (manufactured and sold by Calbiochem-Novabiochem Corporation, U.S.A.) which had been labeled with HRP Grade IV (manufactured and sold under the brand of SIGMA™, U.S.A.) was employed. The labeling was performed by the method described in Analytical Biochemistry, 132, 68-73 (1983). The wells were washed 5 times with the washing solution, and 100 1 μl of a just-prepared TMB solution (manufactured and sold by Kirkegaad & Perry Laboratories, U.S.A.) was added thereto to effect a color reaction. 2 Minutes after the start of the color reaction, 100 μl of a 1 N sulfuric acid solution (manufactured and sold by Nacalai Tesque, Inc., Japan) was added to the wells to thereby terminate the reaction. Then, the absorbance at 450 nm was measured by means of a plate reader (manufactured and sold by Bio-Rad Laboratories, U.S.A.). The measurement was conducted 3 times, and a mean value±standard deviation was obtained.

[3] = test system: white blood cells in whole blood; details: nonionic surfactants, dependence on HLB value
Procedure: Blood collection, treatment with a surfactant, and ELISA were performed in the same manner as in Example 3 in order to measure the MPO-releasing effects of the below-mentioned various surfactants.
These surfactants were individually dissolved in purified water (manufactured and sold by Kyoei Seiyaku Co., Japan) so as to obtain 10% or 2% (w/v) aqueous solutions. Before use in the testing, each of the aqueous solutions was further diluted to obtain a 1% (w/v) aqueous solution, and the 1% (w/v) aqueous solution was used in the testing within 15 hours from the preparation thereof. As a control, purified water (manufactured and sold by Kyoei Seiyaku Co., Japan) was used.

[4] = Example 5 (Table 5): 500 μl blood + 500 μl 1% (w/v) surfactant solution, mean ± SD
[5] = Example 3 (Table 3): 500 μl blood + 500 μl 1% (w/v) surfactant solution, mean ± SD of 3
[6] = Example 4 (Table 4): 500 μl blood + 500 μl 1% (w/v) surfactant solution, mean ± SD
[7] = concentration of surfactant 0.05 % (w/v)
[8] = concentration of surfactant 0.10 % (w/v)
[9] = concentration of surfactant 0.20 % (w/v)
[10] = concentration of surfactant 0.30 % (w/v)
[11] = concentration of surfactant 0.50 % (w/v)
[12] = concentration of surfactant 1.00 % (w/v)
[13] = concentration of surfactant 2.00 % (w/v)
[14] = concentration of surfactant 5.00 % (w/v)
[15] = concentration of surfactant 10.00 % (w/v)

## CCCCCCCCCCCC[N+](C)(C)C.[Br-] [DTAB, n-Dodecyltrimethylammonium Bromide]
[1]; [4]
  MPO concentration of whole blood: 8.05 ± 0.64 µg/mL

## CCCCCCCCCCCCCCCC[N+](C)(C)C.[Br-] [HTAB, Hexadecyltrimethylammonium Bromide]
[1]; [5]
  MPO concentration of whole blood: 5.80 ± 1.41 µg/mL
[1]; [6]
  MPO concentration of whole blood: 9.58 ± 0.53 µg/mL
[1]; [4]
  MPO concentration of whole blood: 7.15 ± 2.69 µg/mL

## CCCCCCCCCCCCCCCC[N+](C)(C)C.[Cl-] [HTAC, Hexadecyltrimethylammonium Chloride]
[1]; [6]
  MPO concentration of whole blood: 10.93 ± 0.82 µg/mL
[1]; [4]
  MPO concentration of whole blood: 7.35 ± 0.28 µg/mL

## CCCCCCCCCCCC[n+]1ccccc1.[Cl-] [LPC, 1-Laurylpyridinium Chloride]
[1]; [6]
  MPO concentration of whole blood: 9.58 ± 1.39 µg/mL
[1]; [4]
  MPO concentration of whole blood: 7.57 ± 0.60 µg/mL

## CCCCCCCCCCCCCCCCCC[N+](C)(C)C.[Cl-] [OTAC, Octadecyltrimethylammonium Chloride]
[1]; [4]
  MPO concentration of whole blood: 7.47 ± 0.38 µg/mL

## CCCCCCCCCCCCCC[N+](C)(C)C.[Br-] [TTAB, Tetradecyltrimethylammonium Bromide]
[1]; [6]
  MPO concentration of whole blood: 9.33 ± 1.30 µg/mL
[1]; [4]
  MPO concentration of whole blood: 8.08 ± 0.11 µg/mL

## α-(4-Nonylphenyl)-ω-hydroxypoly(oxy-1,2-ethanediyl) [Nissan Nonion NS-208.5]
[1]; [5]
  MPO concentration of whole blood: 6.20 ± 1.51 µg/mL

## α-[4-(1,1,3,3,-Tetramethylbutyl)phenyl]-ω-hydroxypoly(oxy-1,2-ethanediyl) [Igepal ™ CA630]
[1]; [5]
  MPO concentration of whole blood: 6.23 ± 1.42 µg/mL
[2]; [7]
  Release amount of MPO in whole blood: 0.103 ± 0.005 Abs. 450 nm
[2]; [8]
  Release amount of MPO in whole blood: 0.156 ± 0.009 Abs. 450 nm
[2]; [9]
  Release amount of MPO in whole blood: 0.205 ± 0.007 Abs. 450 nm
[2]; [10]
  Release amount of MPO in whole blood: 0.211 ± 0.008 Abs. 450 nm
[2]; [11]
  Release amount of MPO in whole blood: 0.249 ± 0.002 Abs. 450 nm
[2]; [12]
  Release amount of MPO in whole blood: 0.220 ± 0.008 Abs. 450 nm
[2]; [13]
  Release amount of MPO in whole blood: 0.208 ± 0.003 Abs. 450 nm
[2]; [14]
  Release amount of MPO in whole blood: 0.199 ± 0.018 Abs. 450 nm
[2]; [15]
  Release amount of MPO in whole blood: 0.227 ± 0.006 Abs. 450 nm

## α-[4-(1,1,3,3,-Tetramethylbutyl)phenyl]-ω-hydroxypoly(oxy-1,2-ethanediyl) [Triton ™ X-114]
[3]
  Efficiency for releasing intrinsic MPO from the white blood cells (in words): high activity to release intrinsic MPO
[1]; [5]
  MPO concentration of whole blood: 7.44 ± 1.81 µg/mL
[2]; [7]
  Release amount of MPO in whole blood: 0.120 ± 0.026 Abs. 450 nm
[2]; [8]
  Release amount of MPO in whole blood: 0.131 ± 0.016 Abs. 450 nm
[2]; [9]
  Release amount of MPO in whole blood: 0.207 ± 0.004 Abs. 450 nm
[2]; [10]
  Release amount of MPO in whole blood: 0.198 ± 0.003 Abs. 450 nm
[2]; [11]
  Release amount of MPO in whole blood: 0.259 ± 0.007 Abs. 450 nm
[2]; [12]
  Release amount of MPO in whole blood: 0.240 ± 0.006 Abs. 450 nm
[2]; [13]
  Release amount of MPO in whole blood: 0.245 ± 0.015 Abs. 450 nm
[2]; [14]
  Release amount of MPO in whole blood: 0.239 ± 0.002 Abs. 450 nm
[2]; [15]
  Release amount of MPO in whole blood: 0.243 ± 0.005 Abs. 450 nm
